US20230060174A1, “PHARMACEUTICAL COMPOSITION OF TRICYCLIC PDE3/PDE4 DUAL INHIBITOR COMPOUND” (CHIA TAI TIANQING PHARMACEUTICAL GROUP CO., LTD., priority 2020, published 2023)

Experiments:
[1] = tested on: TNF-α in human peripheral blood mononuclear cells; assay: Inhibitory activity against TNF-α in LPS-stimulated hPBMCs (ELISA); type: cell-based; conditions: PBMC, 1 ng/mL LPS, 24 h, read-out: hPBMC IC50 (TNF-α)
Source text: Experimental Example 8: In vitro detection of the inhibitory activity of the compound against TNF-α in human peripheral blood mononuclear cells Objective: to measure the anti-inflammatory activity at cellular level of the test compound based on the level of TNF-α in human peripheral blood mononuclear cells (hPBMCs).
Procedures: • 1. Normal human whole blood was collected into an EDTA anticoagulation tube; • 2. The PBMC was separated by Ficoll density gradient centrifugation and counted, and the cell concentration was adjusted to 2×10^6 cells/mL; • 3. To each well of a U-bottom 96-well plate were added 2×10^5 cells, 1 ng/mL LPS, and solutions of the compound of formula (I) in DMSO at concentrations of […], 1 μM, 100 nM, 10 nM, 1 nM, 100 pM and 10 pM, with a system volume of 200 μL per well; • 4. The mixture was incubated for 24 h, and then the supernatant was collected; • 5. The level of TNF-α in the supernatant was detected by ELISA, an inhibition curve was fitted using Graphpad Prism software, and the IC50 was calculated.

[2] = target: T1, recombinant human PDE3A (Homo sapiens, UniProt Q14432); assay: In vitro inhibitory activity against PDE 3A enzyme (fluorescence polarization); type: biochemical; conditions: 1 μM cAMP substrate
T1 construct: amino acid 669-end; GST (N); host or cells: Sf9 insect cells (baculovirus)
T1 sequence (Q14432 669-1141 limits assumed): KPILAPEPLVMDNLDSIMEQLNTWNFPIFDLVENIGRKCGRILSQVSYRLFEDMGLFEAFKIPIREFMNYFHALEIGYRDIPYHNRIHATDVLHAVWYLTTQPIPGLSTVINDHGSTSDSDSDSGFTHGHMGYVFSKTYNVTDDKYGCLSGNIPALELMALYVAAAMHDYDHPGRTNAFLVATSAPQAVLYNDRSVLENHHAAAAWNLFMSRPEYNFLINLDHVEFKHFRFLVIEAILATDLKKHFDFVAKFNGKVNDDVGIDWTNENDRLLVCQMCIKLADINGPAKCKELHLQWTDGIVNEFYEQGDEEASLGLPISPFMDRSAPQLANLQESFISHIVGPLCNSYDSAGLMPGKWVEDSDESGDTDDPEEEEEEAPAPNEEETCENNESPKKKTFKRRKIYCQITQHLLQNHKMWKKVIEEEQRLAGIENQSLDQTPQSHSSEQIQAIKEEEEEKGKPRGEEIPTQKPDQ
Protocol: Experimental Example 3: In vitro detection of the inhibitory activity of the compound against PDE 3A enzyme
Objective: to determine the AMP/GMP expression based on fluorescence polarization, i.e., to trace binding of AMP/GMP to antibody so as to indicate enzyme activity.
Buffer solution: 10 mM Tris—HCl (pH 7.5), 5 mM MgCl2, 0.01% Brij 35, 1 mM dithiothreitol (DTT), and 1% DMSO.
Enzyme: recombinant human PDE3A (Gene accession number: NM 000921; amino acid 669-end) was expressed by baculovirus in Sf9 insect cells using an N-terminal GST tag, with the molecular weight being 84 kDa.
Enzyme substrate: 1 μM cAMP Detection: TranscreenerOAMP2/GMP2 antibody and AMP2/GMP2 AlexaFluor633 tracer.
Procedures: • 1. The recombinant human PDE3A enzyme and enzyme substrate (μM cAMP) were each dissolved in newly prepared experimental buffer solution; • 2. […] The measurement range of fluorescence polarization was […]. • Data analysis: the fluorescence polarization signal was converted to nM based on AMP/GMP standard curve and the percentage enzyme activity relative to DMSO control calculated by Excel. […] The measurement range of fluorescence polarization was Ex/Em=620/688. • […]

Question: `CCOc1cc2c(cc1OC)-c1c/c(=N\c3c(C)cc(C)cc3C)n(CCNC(=O)c3c(O)nnn3C)c(=O)n1CC2` [Compound of formula (I)] was tested. Which IC50 [1] did it give?
Answer: 29.2 nM

Question: And the IC50 [2]?
Answer: 0.03 nM
